{
  "source": "patent US20240287136A1",
  "about": "“PHARMACEUTICAL COMPOSITION AND THE USE THEREOF IN THE TREATMENT OF AUTOIMMUNE DISEASES” (Singapore Health Services Pte. Ltd., priority 2016, published 2024)",
  "key": {"PD-1+Treg and PD-1− Treg": {"test_system": "PD-1+Treg and PD-1− Treg", "assay": "TaqMan RNA expression in sorted total, PD-1+ and PD-1− Treg of clinical responders", "assay_type": "in vivo, human", "settings": "SEQ ID NO. 1 clinical responders at Tend", "method": "FIG. 5. PD-1 actively contributes to Treg function: a. Treg ability to suppress Teff proliferation was determined by CFSE dilution. A representative clinical responder is depicted. Treg cells were sorted by FACS according to the phenotype depicted in the table and incubated with Teff in the presence of 10 mg/ml of SEQ ID NO. 1. b. […] 1. c. […] 1. Line with white area under the curve depicts T0, grey area depicts Tend. T(x)=Probability binning. % PD-1+Treg is expressed as percentage of the total Treg population (insets in both panels). d. […] PD-1+Treg cells were stained by FACS after a 5-day incubation with Teff and APC in the presence or absence of anti-PD1 antibody. Details in methods. Line with white area under the curve depicts anti-PD1 treated, grey area depicts untreated. T(x)=Probability binning. e. pSTAT5 was examined in Treg via immunofluorescent microscopy. Cells, staining and slides were prepared according to procedures outlined in the methods. The average pSTAT5 expression per cell for anti-PD-1 treatment, as determined by the average integral density per unit area, was calculated using ImageJ (Rasband, W. S., ImageJ, http://rsb.info.nih.gov/ij/, 1997-2009). Untreated vs. anti-PD-1 treated: 38.79 vs. 33.07, standard deviation 4.27 vs. […], t-test p<0.0001. f. […] Teff were stained by FACS after a 5-day incubation in the presence or absence of anti-PD1 antibody. Details in methods. Line with white area under the curve depicts anti-PD1 treated, grey area depicts untreated. T(x)=Probability binning. g. Total Treg, PD-1+Treg and PD-1− Treg from clinical responders (n=S) at Tend were sorted and RNA expression of CTLA-4, FoxP3, IL-10 and TGF-β was measured by TaqMan. Data are expressed as 2(−dCT)×100 of GAPDH. […] 1 clinical responders (18.99+/−3.412 vs 2.693+/−1.434, n=S p=0.0130).\nTo further characterize function of PD-1+Treg, mRNA was extracted from FACS-sorted CD4+/CD25++/CD127−total Treg, PD-1+Treg and PD-1-Treg and tested by qPCR for expression of various genes associated with Treg function."}, "[1]": {"test_system": "effector T cells (Teff) (CD4+CD127+)", "assay": "FACS of effector T cells of trial patients (PD-1, intracellular IL-17A, IL-23 receptor)", "assay_type": "in vivo, human", "method": "(§1) FIG. 3. Effector and regulatory T cell function differ according to clinical response: a. effector T cells (Teff) (CD4+CD127+) at beginning of the trial (TO) and end of the study (Tend) were compared for PD-1 expression in both SEQ ID NO. 1 clinical responders and placebo clinical non-responders by FACS. b. FACS-sorted Teffwere analyzed for IL-17 and for RORC. Teff were stained intracellularly with IL-17A, and analyzed by FACS. c. regulatory T cell (Treg) (CD4+CD25++CD127−) frequency (% of PBMC) was determined in SEQ ID NO. 1—treated clinical responders by FACS. […] Values are the mean and s.e.m. d. Treg functionality in SEQ ID NO. […] (placebo clinical non-responders vs SEQ ID NO. 1 clinical responders, —76.21+/−3.665 vs 8.443+/−4.677, n=2 vs 3, t-test p0.0010). Values are the mean and s.e.m.\nTherefore, a first hypothesis to test here is whether CD4+/CD127+T effector (Teff) cell anergy was induced by treatment with SEQ ID NO. 1. […] In addition, Teff were able to proliferate to conventional polyclonal stimuli (data not shown).\nFurther analysis of Teff in SEQ ID NO. […] Conversely, an increased expression in IL-17A expression was detected in placebo—treated clinical non-responders. […] 1 induced an immune deviation of Teff with a reduction in the ability to produce pro-inflammatory cytokines.\n(§2) In FIG. 3b Y axis: % net change between Tend and T0 for both Teff producing IL-17A (first two columns, measured by FACS) and RORC expression (measured by TaqMan). […] Results were analyzed as a percentage of GAPDH. […] Values are the mean and s.e.m."}, "[2]": {"test_system": "regulatory T cell (Treg) (CD4+CD25++CD127−)", "assay": "Treg functionality: suppression of Teff proliferation (CFSE dilution)", "assay_type": "in vivo, human", "settings": "SEQ ID NO. 1 clinical responders at Tend, n=3; mean and s.e.m.; placebo clinical non-responders —76.21+/−3.665", "method": "as §1, with “p0.0010). […]” for “p0.0010). Values are the mean and s.e.m.”\nFIG. 5. […] Treg ability to suppress Teff proliferation was determined by CFSE dilution. […] T(x)=Probability binning. % PD-1+Treg is expressed as percentage of the total Treg population (insets in both panels). d. […] The average pSTAT5 expression per cell for anti-PD-1 treatment, as determined by the average integral density per unit area, was calculated using ImageJ (Rasband, W. S., ImageJ, http://rsb.info.nih.gov/ij/, 1997-2009). […] Total Treg, PD-1+Treg and PD-1− Treg from clinical responders (n=S) at Tend were sorted and RNA expression of CTLA-4, FoxP3, IL-10 and TGF-β was measured by TaqMan. Data are expressed as 2(−dCT)×100 of GAPDH. […]"}, "[3]": {"test_system": "regulatory T cell (Treg) (CD4+CD25++CD127−)", "assay": "Treg frequency in PBMC of trial patients by FACS", "assay_type": "in vivo, human", "method": "as §1\nIt is not detected in clinical responders a change in frequency of CD4+/CD25++/CD127-Treg between beginning and end of the trial (FIG. 3c). A highly significant difference between treatment responders and placebo non-responders was found in the suppressive ability of Treg at the end of the trial (FIG. 3d). This difference indicates a restoration of Treg functionality in clinical responders to treatment with SEQ ID NO. 1 (FIG. 3d and Sa).\nSuccessful treatment with SEQ ID NO: 1 therefore induced an immune deviation of Teff cells by reducing their ability to produce pro-inflammatory cytokines. […]"}, "[4]": {"assay_type": "in vitro ADME", "settings": "without a linker; data not shown", "description": "This is synthetically of less interest to a person skilled in the art since it usually involves multiple-step synthesis for making the peptide. In the presence of the linker, the peptide SEQ ID No: 1 and the antirheumatic drug can be administered in equal proportion because the linker protects the peptide from degradation and thus enhance the stability of the peptide."}, "[5]": {"test_system": "effector T cells (Teff) (CD4+CD127+)", "assay": "Gene expression in FACS-sorted Teff of trial patients (TaqMan)", "assay_type": "in vivo, human", "method": "as §1, §2\nSuccessful treatment with SEQ ID NO: 1 therefore induced an immune deviation of Teff cells by reducing their ability to produce pro-inflammatory cytokines. An increase in the number of Treg cells could be one possible explanation for this observation."}, "[6]": {"settings": "responders, end of the treatment regime (FIG. 9A)"}},
  "note": "Ends that are not written are not given here.",
  "data": [
    {"substance": "QKRAAYDQYGHAAFE-NH2 [SEQ ID NO. 1]", "values": [
      {"measurement": "CTLA-4, FoxP3 and IL-10 expression between the different subsets of Treg", "setting": "PD-1+Treg and PD-1− Treg", "result": "did not differ"},
      {"measurement": "TGF-β gene expression in PD-1+Treg", "setting": "PD-1+Treg and PD-1− Treg", "result": "18.99+/−3.412 2(−dCT)×100 of GAPDH"},
      {"measurement": "TGF-β gene expression in PD-1− Treg", "setting": "PD-1+Treg and PD-1− Treg", "result": "2.693+/−1.434 2(−dCT)×100 of GAPDH"},
      {"measurement": "IL-23 receptor expression in Teff", "setting": "[1]; SEQ ID NO. 1-treated clinical responders, not shown", "result": "decrease"},
      {"measurement": "Intracellular IL-17A expression in Teff cells", "setting": "[1]; clinical responders, Tend, T0 8.003+/−0.07839%, n=3, mean and s.e.m.", "result": "4.873+/−0.6933%"},
      {"measurement": "% of PD-1+ in the total Teff population", "setting": "[1]; clinical responders, end of trial (Tend), T0 6.312+/−1.428, n=5, mean+/−s.e.m.", "result": "4.930+/−1.433%"},
      {"measurement": "Treg functionality, % suppression of Teff proliferation", "setting": "[2]", "result": "8.443+/−4.677 % suppression"},
      {"measurement": "change of frequency of Tregs between beginning and end of the trial", "setting": "[3]; FIG. 9B", "result": "did not change"},
      {"measurement": "Treg frequency in PBMC", "setting": "[3]; clinical responders, Tend, T0 7.773+/−1.432, n=4, mean and s.e.m.", "result": "7.610+/−1.519 % of PBMC"},
      {"measurement": "stability of the peptide upon ingestion", "setting": "[4]", "result": "prone to degradation upon ingestion"},
      {"measurement": "RORC gene expression in Teff", "setting": "[5]; clinical responders, Tend, T0 3.382+/−0.684, mean and s.e.m.", "result": "1.670+/−0.714 percentage of GAPDH"},
      {"measurement": "IFNγ expression in CD4+Teff cells", "setting": "[5]; [6]", "result": "significantly lower levels"},
      {"measurement": "IL-17A expression in CD4+Teff cells", "setting": "[5]; [6]", "result": "significantly lower levels"}
    ]}
  ]
}
